Test results from patent US6174713A, “Candida cytoplasmic tryptophanyl-tRNA synthetase proteins, nucleic acids and strains comprising same” (Cubist Pharmaceuticals, Inc., priority 1997, dated 2001).

Legend:
[1] = target: C. albicans cytoplasmic tryptophanyl-tRNA synthetase (recombinant, thrombin-cleaved GST fusion from pC3 822) (Candida albicans, UniProt Q5A3P4); test: Aminoacylation (charging) assay, Km determination with purified recombinant TrpRS; assay type: biochemical; details: read-out: Km for tryptophan; recombinant enzyme; crude yeast tRNA; 1 to 40 μM [3H]tryptophan; 25° C.
Chain of C. albicans cytoplasmic tryptophanyl-tRNA synthetase (recombinant, thrombin-cleaved GST fusion from pC3 822) (Q5A3P4 whole entry S271A, the tested form may be a part): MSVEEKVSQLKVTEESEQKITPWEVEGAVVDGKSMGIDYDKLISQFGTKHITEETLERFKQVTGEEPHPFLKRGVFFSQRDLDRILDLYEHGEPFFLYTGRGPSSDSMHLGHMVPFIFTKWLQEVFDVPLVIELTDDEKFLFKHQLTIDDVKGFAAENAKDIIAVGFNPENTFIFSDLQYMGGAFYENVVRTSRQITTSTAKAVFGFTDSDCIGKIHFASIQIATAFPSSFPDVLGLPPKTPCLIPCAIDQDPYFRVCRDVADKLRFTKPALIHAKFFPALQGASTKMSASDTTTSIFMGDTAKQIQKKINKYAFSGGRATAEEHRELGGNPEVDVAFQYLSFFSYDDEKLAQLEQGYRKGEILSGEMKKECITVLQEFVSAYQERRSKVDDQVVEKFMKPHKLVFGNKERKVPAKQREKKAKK
Method: (§1) The purified recombinant protein obtained after thrombin cleavage of the GST-fusion protein produced by JM109/pC^3 822 was used for further kinetic studies. Charging assays were based on the procedure of Shepard et al. (Proc. Natl. Acad. Sci. USA 89:9964-68 (1992)). Unless otherwise stated, a typical 50 μl reaction, carried out at 25° C., contained 1 mM ATP, 1 μM of [^3 H]Tryptophan (22.2 Ci/mmol), 90 μM crude tRNA from brewer's yeast (Boehringer Mannheim), 10 mM KF, 30 mM HEPES, 30 mM KCl pH 7.5, 5 mM MgCl2, and 10 mM DTT. Purified enzyme was diluted in 100 mM HEPES, pH 7.5, 20 mM DTT and 0.1 mg/ml BSA.
(§2) Reactions were started by the addition of enzyme to the reaction mixture preincubated at 25° C., with […] protein in the assay. At various time intervals, 10 μl of the reaction mix was quenched in a 96-well filter plate (Millipore, cat# MAFBNOB50) prefilled with 100 μl of cold 5% TCA. The liquid in the filter plate was drained by applying vacuum suction on the manifold. The plate was subsequently washed 2 times with 200 μl 5% TCA, 2 times with 100 μl double distilled H2 O with continuous vacuum suction, and once with 100 μl 95% EtOH. The plate was heat-dried under vacuum, 100 μl Microscint was added to each well, and the aminoacylated tRNA was quantitated by scintillation counting in a Topcount (Packard) scintillation counter. […]

[2] = tested on: Nc1ncnc2c1ncn2[C@@H]1O[C@H](COP(=O)(O)OP(=O)(O)OP(=O)(O)O)[C@@H](O)[C@H]1O; test: as above; assay type: biochemical, Candida albicans; details: other: recombinant enzyme, ATP concentration range 0.19 to 6 mM, 25° C., pH 7.5
Method: as §1, §2

Compound | Km [1] | Km [2]
N[C@@H](Cc1c[nH]c2ccccc12)C(=O)O [tryptophan] | 3 to 4 µM | 
C. albicans cytoplasmic tryptophanyl-tRNA synthetase (recombinant, thrombin-cleaved GST fusion from pC3 822) (Candida albicans SC5314) |  | 1100 µM
